# Results reported in US9322066B2, “Predictors for cancer treatment” (priority 2011, dated 2016).
# Test system: relapsed or refractory, rituximab-naive or -sensitive follicular B-cell NHL
# Test: Time to progression (TTP), Vc-R vs rituximab study, by biomarker
# Type: in vivo, human
# Set-up: TTP Median: unit not given here
# Excerpt: Non-Hodgkin lymphoma (NHL) encompasses several unique malignant lymphoid disease entities that vary in clinical behavior, morphologic appearance, immunologic, and molecular phenotype. […] A randomized, open-label, active-controlled, multicenter, multinational, prospective study to compare the efficacy and safety of the combination of bortezomib and rituximab (Vc-R) to single-agent rituximab in subjects who have relapsed or refractory, rituximab-naive or -sensitive follicular B-cell NHL was performed.
# Subjects were centrally randomized to Treatment Groups A (Vc-R) or B (rituximab) in a 1:1 ratio taking into account the following stratification factors: • Follicular Lymphoma International Prognostic Index (FLIPI) score (low [0 or 1 factor], intermediate [2 factors], high [≧3 factors]); • Prior rituximab therapy (yes, no); • Time since last dose of anti-lymphoma therapy (≦1 year, >1 year); • Region (United States/Canada, European Union, Rest of World).
# For single-marker association analyses and pair-wise comparisons, a log rank test and Cox proportional hazard model was utilized for assessments of PFS, TTP, and OS between the treatment groups. Kaplan-Meier curves were utilized to estimate the distribution differences between groups in the time-to-event analyses. Comparison of the response rates between the treatment groups was conducted using the Fishers exact test. Single-marker association analyses were stratified by the covariates.
# For pair-wise comparison analysis, biomarker pairs were formed by combinations of two markers. A log rank test was utilized for assessments of PFS, TTP, and OS between the treatment groups in the subpopulation defined by biomarker pairs. Kaplan-Meier curves were utilized to estimate the distribution differences between groups in the time-to-event analyses. Comparison of the response rates between the treatment groups was conducted using the Fishers exact test. Methods of Analysis for the multiple biomarker comparison models can be found in section 4.6.
# [1] = PSMB1/I208N: T/T, Ann Arbor Stage IV, IRC review
# [2] = PSMB1/I208N: T/T, High Tumor Burden, IRC review
# [3] = PSMB1/I208N: T/T, ≦65 years old, IRC review
# [4] = PSMB1/P11A: C/G, Ann Arbor Stage IV, IRC review
# [5] = PSMB1/P11A: C/G, High Tumor Burden, IRC review
# [6] = PSMB1/P11A: C/G, ≦65 years old, IRC review
# [7] = PSMB1/P193L: C/C, Ann Arbor Stage IV, IRC review
# [8] = PSMB1/P193L: C/C, High Tumor Burden, IRC review
# [9] = PSMB1/P193L: C/C, ≦65 years old, IRC review
# [10] = PSMB2/E49X: G/G, Ann Arbor Stage IV, IRC review
# [11] = PSMB2/E49X: G/G, High Tumor Burden, IRC review
# [12] = PSMB2/E49X: G/G, ≦65 years old, IRC review
# [13] = PSMB2/G187V: G/G, Ann Arbor Stage IV, IRC review
# [14] = PSMB2/G187V: G/G, High Tumor Burden, IRC review
# [15] = PSMB2/G187V: G/G, ≦65 years old, IRC review
# [16] = PSMB2/L159F: C/C, Ann Arbor Stage IV, IRC review
# [17] = PSMB2/L159F: C/C, High Tumor Burden, IRC review
# [18] = PSMB2/L159F: C/C, ≦65 years old, IRC review
# [19] = PSMB5/L206M: C/C, Ann Arbor Stage IV, IRC review
# [20] = PSMB5/L206M: C/C, High Tumor Burden, IRC review
# [21] = PSMB5/L206M: C/C, ≦65 years old, IRC review
# [22] = PSMB5/R24C: C/C, ≦65 years old, IRC review
# [23] = PSMB5/R24C: C/T, 2 Prior Lines of Therapy, IRC review
# [24] = PSMB5/R24C: C/T, High Tumor Burden, IRC review
# [25] = PSMB6/A234D: C/C, Ann Arbor Stage IV, IRC review
# [26] = PSMB6/A234D: C/C, High Tumor Burden, IRC review
# [27] = PSMB6/A234D: C/C, ≦65 years old, IRC review
# [28] = PSMB6/P107A: C/C, Ann Arbor Stage IV, IRC review
# [29] = PSMB6/P107A: C/C, ≦65 years old, IRC review
# [30] = PSMB8/G8R: G/G, Ann Arbor Stage IV, IRC review
# [31] = PSMB8/G8R: G/G, High Tumor Burden, IRC review
# [32] = PSMB8/G8R: G/G, ≦65 years old, IRC review
# [33] = PSMB8/R141C: C/C, Ann Arbor Stage IV, IRC review
# [34] = PSMB8/R141C: C/C, High Tumor Burden, IRC review
# [35] = PSMB8/R141C: C/C, ≦65 years old, IRC review
# [36] = PSMB8/V182M: G/G, >1 year since last anti-lymphoma treatment, IRC review
# [37] = PSMB8/V182M: G/G, Ann Arbor Stage IV, IRC review
# [38] = PSMB8/V182M: G/G, High Tumor Burden, IRC review
# [39] = PSMB8/V182M: G/G, ≦65 years old, IRC review
# [40] = PSMB9/G9E: G/G, >1 year since last anti-lymphoma treatment, IRC review
# [41] = PSMB9/G9E: G/G, Ann Arbor Stage IV, IRC review
# [42] = PSMB9/G9E: G/G, High Tumor Burden, IRC review
# [43] = PSMB9/G9E: G/G, ≦65 years old, IRC review
# [44] = PSMB9/R60H: A/G, Male, IRC review
# [45] = PSMB9/R60H: G/G, ≦65 years old, IRC review
# [46] = PSMB9/V32I: C/C, >1 year since last anti-lymphoma treatment, IRC review
# [47] = PSMB9/V32I: C/C, Ann Arbor Stage IV, IRC review
# [48] = PSMB9/V32I: C/C, No Subgroup, IRC review
# [49] = PSMB9/V32I: C/C, ≦65 years old, IRC review
substance,measurement,setting,value
rituximab,TTP Median,"PSMB1/A171S: G/G, ≦65 years old, IRC review",326
same,TTP Evt/N,[1],95/127
same,TTP Median,[1],278
same,TTP Evt/N,[2],110/147
same,TTP Median,[2],273
same,TTP Evt/N,[3],131/198
same,TTP Median,[3],326
same,TTP Evt/N,[4],46/59
same,TTP Median,[4],235
same,TTP Evt/N,[5],52/72
same,TTP Median,[5],253
same,TTP Evt/N,[6],62/96
same,TTP Median,[6],288
same,TTP Evt/N,[7],95/127
same,TTP Median,[7],278
same,TTP Evt/N,[8],110/147
same,TTP Median,[8],273
same,TTP Evt/N,[9],131/198
same,TTP Median,[9],326
same,TTP Evt/N,[10],95/127
same,TTP Median,[10],278
same,TTP Evt/N,[11],110/147
same,TTP Median,[11],273
same,TTP Evt/N,[12],131/198
same,TTP Median,[12],326
same,TTP Evt/N,[13],95/127
same,TTP Median,[13],278
same,TTP Evt/N,[14],110/147
same,TTP Median,[14],273
same,TTP Evt/N,[15],131/198
same,TTP Median,[15],326
same,TTP Evt/N,[16],95/127
same,TTP Median,[16],278
same,TTP Evt/N,[17],110/147
same,TTP Median,[17],273
same,TTP Evt/N,[18],131/198
same,TTP Median,[18],326
same,TTP Evt/N,[19],95/127
same,TTP Median,[19],278
same,TTP Evt/N,[20],110/147
same,TTP Median,[20],273
same,TTP Evt/N,[21],131/198
same,TTP Median,[21],326
same,TTP Evt/N,[22],115/170
same,TTP Median,[22],334
same,TTP Evt/N,[23],8/10
same,TTP Median,[23],280
same,TTP Evt/N,[24],17/21
same,TTP Median,[24],275
same,TTP Evt/N,[25],95/127
same,TTP Median,[25],278
same,TTP Evt/N,[26],110/147
same,TTP Median,[26],273
same,TTP Evt/N,[27],131/198
same,TTP Median,[27],326
same,TTP Evt/N,[28],92/124
same,TTP Median,[28],279
same,TTP Evt/N,[29],126/189
same,TTP Median,[29],330
same,TTP Evt/N,[30],88/120
same,TTP Median,[30],279
same,TTP Evt/N,[31],104/140
same,TTP Median,[31],271
same,TTP Evt/N,[32],124/189
same,TTP Median,[32],330
same,TTP Evt/N,[33],95/127
same,TTP Median,[33],278
same,TTP Evt/N,[34],110/147
same,TTP Median,[34],273
same,TTP Evt/N,[35],131/198
same,TTP Median,[35],326
same,TTP Evt/N,[36],104/165
same,TTP Median,[36],381
same,TTP Evt/N,[37],95/127
same,TTP Median,[37],278
same,TTP Evt/N,[38],110/147
same,TTP Median,[38],273
same,TTP Evt/N,[39],131/198
same,TTP Median,[39],326
same,TTP Evt/N,[40],104/163
same,TTP Median,[40],381
same,TTP Evt/N,[41],95/126
same,TTP Median,[41],278
same,TTP Evt/N,[42],110/145
same,TTP Median,[42],271
same,TTP Evt/N,[43],131/196
same,TTP Median,[43],326
same,TTP Evt/N,[44],22/28
same,TTP Median,[44],273
same,TTP Evt/N,[45],79/119
same,TTP Median,[45],330
same,TTP Evt/N,[46],102/160
same,TTP Median,[46],379
same,TTP Evt/N,[47],93/123
same,TTP Median,[47],277
same,TTP Median,"PSMB9/V32I: C/C, High Tumor Burden, IRC Review",273
same,TTP Evt/N,[48],177/266
same,TTP Median,[48],345
same,TTP Evt/N,[49],129/192
same,TTP Median,[49],326
